According to PubChem BioAssay (NCI):
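The concentration for 50% growth inhibition is given as GI50. TGI is the concentration that stops growth completely.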

Assays:
Assay in all cases: growth of human tumour cells (NCI), 384-well format
M14 melanoma = test system: M14 melanoma
HCC-2998 colon = test system: HCC-2998 colon
SK-MEL-2 melanoma = test system: SK-MEL-2 melanoma
HCT-116 colon = test system: HCT-116 colon
NCI-H322M lung = test system: NCI-H322M lung
KM12 colon = test system: KM12 colon
PC-3 prostate = test system: PC-3 prostate
MOLT-4 leukemia = test system: MOLT-4 leukemia
SK-OV-3 ovarian = test system: SK-OV-3 ovarian
HOP-62 NSCLC = test system: HOP-62 NSCLC
RXF 393 renal = test system: RXF 393 renal
HCT-15 colon = test system: HCT-15 colon
A498 renal = test system: A498 renal

SMILES: Cc1ccc2c(N)c(C(=O)N[C@H]3CCc4cc(N5CC6CCC(C5)N6)ccc4C3)sc2n1
- GI50 (M14 melanoma): 104 nM
- TGI (M14 melanoma): 343 nM
- GI50 (HCC-2998 colon): 246 nM
- TGI (HCC-2998 colon): 751 nM
- GI50 (SK-MEL-2 melanoma): 121 nM
- TGI (SK-MEL-2 melanoma): 421 nM
- GI50 (HCT-116 colon): 155 nM
- TGI (HCT-116 colon): 925 nM
- GI50 (NCI-H322M lung): 208 nM
- TGI (NCI-H322M lung): 660 nM
- GI50 (KM12 colon): 228 nM
- TGI (KM12 colon): 1200 nM
- GI50 (PC-3 prostate): 222 nM
- TGI (PC-3 prostate): 989 nM
- GI50 (MOLT-4 leukemia): 35.1 nM
- TGI (MOLT-4 leukemia): 105 nM
- GI50 (SK-OV-3 ovarian): 99 nM
- TGI (SK-OV-3 ovarian): 940 nM
- GI50 (HOP-62 NSCLC): 148 nM
- TGI (HOP-62 NSCLC): 624 nM
- GI50 (RXF 393 renal): 116 nM
- TGI (RXF 393 renal): 406 nM
- GI50 (HCT-15 colon): 260 nM
- TGI (HCT-15 colon): 1030 nM
- GI50 (A498 renal): 164 nM
- TGI (A498 renal): 892 nM
